Test results reported in patent US20130065897A1, “COMPOUNDS, PREPARATION AND USES THEREOF” (PETER MACCALLUM CANCER INSTITUTE, priority 2009, published 2013).

Tests used:
[1] = test system: KHYG-1 NK cells; assay: Toxicity to KHYG-1 NK cells (trypan blue viability); type: cell-based; settings: viable cells as percentage of total (% viability), 18 to 24 hours
Description: Toxicity to KHYG-1 NK Cells
KHYG-1 cells were washed and resuspended in RPMI+0.1% BSA at 4×10^5 cells/ml and 50 μl of KHYG-1 cells were dispensed to each well of a 96-well V-bottom plate. Test compounds were added to KHYG-1 cells at a concentration of 20 μM and incubated at RT for 20 minutes. 100 μL of RPMI 0.1% BSA was added and the cells were incubated for 4 hours at 37° C. then washed ×3 in RPMI+0.1% BSA. Cells were then resuspended in 200 μl of complete medium and incubated for 18 to 24 hours at 37° C. Trypan blue was added to each well and viable (clear) cells counted as a percentage of total (clear+blue) cell number (% viability).

[2] = test system: KHYG-1 NK cell-mediated lysis of K562 cells; assay: Inhibition of KHYG-1 NK cell-mediated lysis of K562 cells (51Cr release); type: cell-based; settings: K562 target cells, Effector:Target 2:1, 4 hours 37° C.
Description: Inhibition of KHYG-1 NK Cell-Mediated lysis of K562 Cells
KHYG-1 cells were washed and resuspended in RPMI+0.1% BSA at 4×10^5 cells/ml and 50 μl of KHYG-1 cells were dispensed to each well of a 96-well V-bottom, plate. Test compounds were added to KHYG-1 cells at various concentrations up to 20 μM and incubated at RT for 20 minutes. 1×10^6 K562 target cells were labelled with 75 μCi ^51Cr in 200 μl RPMI for 90 mins at 37° C., cells were washed as described above and resuspended in 5 ml RPMI+0.1% BSA. 50 μl of ^51Cr labelled K562 leukemia target cells were added to each well of the KHYG-1 plate (Effector:Target 2:1) and incubated at 37° C. for 4 hours. ^51Cr release was assayed using a Skatron Harvesting Press and radioactivity estimated on a Wallac Wizard 1470 Automatic Gamma counter (Turku, Finland). The percentage of specific cytotoxicity was calculated by the formula: […]
and expressed as the mean of triplicate assays +/−standard error of the mean.

[3] = biological target: recombinant perforin (UniProt P10820); type: cell-based; settings: read-out: Jurkat IC50; recombinant perforin pre-incubated 30 min with compound; 51Cr-labelled Jurkat cells, 0.1% BSA, 37° C. 4 hours
Description: Inhibition of Perforin-Mediated Lysis of Jurkat Cells
The ability of the compounds to inhibit the lysis of nucleated (Jurkat T lymphoma) cells in the presence of 0.1% BSA, as measured by release of ^51Cr was measured. Jurkat target cells were labelled by incubation in medium with 100 μCi ^51Cr for one hour. The cells were then washed three times to remove unincorporated isotope and re-suspended at 1×10^5 cells per mL in RPMI buffer supplemented with 0.1% BSA. […] The supernatant was collected and assessed for its radioactive content on a gamma counter (Wallac Wizard 1470 automatic gamma counter). Each data point was performed in triplicate and an IC50 was calculated from the range of concentrations described to above.

Chain of recombinant perforin (P10820 whole entry): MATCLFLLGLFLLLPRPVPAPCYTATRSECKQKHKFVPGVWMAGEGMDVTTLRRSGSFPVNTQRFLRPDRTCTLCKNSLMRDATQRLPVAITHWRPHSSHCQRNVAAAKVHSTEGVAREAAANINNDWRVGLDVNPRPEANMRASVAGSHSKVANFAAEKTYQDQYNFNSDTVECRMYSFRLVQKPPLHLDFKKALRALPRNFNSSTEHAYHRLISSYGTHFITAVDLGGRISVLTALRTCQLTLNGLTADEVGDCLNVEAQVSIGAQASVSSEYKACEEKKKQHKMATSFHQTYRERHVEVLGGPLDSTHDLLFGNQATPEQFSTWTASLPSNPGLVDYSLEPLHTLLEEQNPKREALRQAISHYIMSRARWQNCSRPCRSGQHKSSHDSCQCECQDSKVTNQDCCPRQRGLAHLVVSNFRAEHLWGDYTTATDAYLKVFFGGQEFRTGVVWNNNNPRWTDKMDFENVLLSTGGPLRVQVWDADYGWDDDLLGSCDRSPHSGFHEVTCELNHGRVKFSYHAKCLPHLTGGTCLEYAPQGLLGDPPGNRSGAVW

O=C1NC(=S)N/C1=C/c1ccc(-c2ccc3c(c2)COC3=O)o1 [Cmpd 1, (E,Z)-5-((5-(1-Oxo-1,3-dihydroisobenzofuran-5-yl)furan-2-yl)methylene)-2-thioxoimidazolidin-4-one]
percent viable KHYG-1 cells (trypan blue) at 20 μM [1]: 66% | inhibition at 20 µM [2]: 95% | melting point: > 300 °C

O=C1NC(=O)/C(=C\c2ccc(-c3ccc4c(c3)COC4=O)s2)N1 [Cmpd 3, (E,Z)-5-((5-(1-Oxo-1,3-dihydroisobenzofuran-5-yl)thiophen-2-yl)methylene)imidazolidine-2,4-dione]
percent viable KHYG-1 cells (trypan blue) at 20 μM [1]: 82% | inhibition at 20 µM [2]: 70% | melting point: > 300 °C

O=C1NC(=S)N/C1=C/c1ccc(-c2cccnc2)s1 [Cmpd 26, (E,Z)-5-((5-(Pyridin-3-yl)thiophen-2-yl)methylene)-2-thioxoimidazolidin-4-one]
IC50 [3]: 12.9 µM | melting point: > 295 °C

O=C1NC(=S)N/C1=C\c1cccc(-c2ccc3c(c2)CNC3=O)c1 [Cmpd 49, (E,Z)-5-(3-((5-Oxo-2-thioxoimidazolidin-4-ylidene)methyl)phenyl)isoindolin-1-one]
IC50 [3]: 3.44 µM | inhibition at 20 µM [2]: 8% | melting point: > 300 °C

O=C1NC(=S)N/C1=C/c1cc(-c2ccc3c(c2)CNC3=O)cs1 [Cmpd 50, (E,Z)-5-(5-((5-Oxo-2-thioxoimidazolidin-4-ylidene)methyl)thiophen-3-yl)isoindolin-1-one]
IC50 [3]: 3 µM | inhibition at 20 µM [2]: 42% | melting point: > 300 °C

O=C1NC(=S)N/C1=C/c1ccc(-c2ccc3c(c2)COC3=O)[nH]1 [Cmpd 53, (E,Z)-5-((5-(1-Oxo-1,3-dihydroisobenzofuran-5-yl)-1H-pyrrol-2-yl)methylene)-2-thioxoimidazolidin-4-one]
IC50 [3]: 2.45 µM | inhibition at 20 µM [2]: 30% | melting point: > 300 °C

O=C1NC(=S)N/C1=C\c1nc(-c2ccc3c(c2)COC3=O)cs1 [Cmpd 56, (E,Z)-5-((4-(1-Oxo-1,3-dihydroisobenzofuran-5-yl)thiazol-2-yl)methylene)-2-thioxoimidazolidin-4-one]
IC50 [3]: 1.41 µM | melting point: > 295 °C

O=C1NC(=S)N/C1=C\c1csc(-c2ccc3c(c2)COC3=O)n1 [Cmpd 57, (E,Z)-5-((2-(1-Oxo-1,3-dihydroisobenzofuran-5-yl)thiazol-4-yl)methylene)-2-thioxoimidazolidin-4-one]
IC50 [3]: 0.34 µM | melting point: > 295 °C

O=C1NC(=S)N/C1=C\c1cc(-c2ccc3c(c2)COC3=O)ns1 [Cmpd 60, (E,Z)-5-((3-(1-Oxo-1,3-dihydroisobenzofuran-5-yl)isothiazol-5-yl)methylene)-2-thioxoimidazolidin-4-one]
IC50 [3]: 1.44 µM | inhibition at 20 µM [2]: 45% | melting point: > 300 °C

CCOC(=O)N1Cc2cc(-c3ccc(/C=C4/NC(=S)NC4=O)s3)ccc2C1=O [Cmpd 65, (E,Z)-Ethyl 1-oxo-5-(5-((5-oxo-2-thioxoimidazolidin-4-ylidene)methyl)thiophen-2-yl)isoindoline-2-carboxylate]
percent viable KHYG-1 cells (trypan blue) at 20 μM [1]: 96% | IC50 [3]: 0.99 µM | inhibition at 20 µM [2]: 72%

CC(=O)N1Cc2cc(-c3ccc(/C=C4/NC(=S)NC4=O)s3)ccc2C1=O [Cmpd 66, (E,Z)-2-Acetyl-5-(5-((5-oxo-2-thioxoimidazolidin-4-ylidene)methyl)thiophen-2-yl)isoindolin-1-one]
percent viable KHYG-1 cells (trypan blue) at 20 μM [1]: 85% | IC50 [3]: 0.93 µM | inhibition at 20 µM [2]: 49%

CC(=O)OCCN1Cc2cc(-c3ccc(/C=C4/NC(=S)NC4=O)s3)ccc2C1=O [Cmpd 68, (E,Z)-2-(1-Oxo-5-(5-((5-oxo-2-thioxoimidazolidin-4-ylidene)methyl)thiophen-2-yl)isoindolin-2-yl)ethyl acetate]
percent viable KHYG-1 cells (trypan blue) at 20 μM [1]: 84% | IC50 [3]: 1.17 µM | inhibition at 20 µM [2]: 86%

CC1c2cc(-c3ccc(/C=C4/NC(=S)NC4=O)s3)ccc2C(=O)N1C (stereo not drawn) [Cmpd 69, (E,Z)-2,3-Dimethyl-5-(5-((5-oxo-2-thioxoimidazolidin-4-ylidene)methyl)thiophen-2-yl)isoindolin-1-one]
percent viable KHYG-1 cells (trypan blue) at 20 μM [1]: 95% | IC50 [3]: 3.21 µM | inhibition at 20 µM [2]: 100%

O=C1NC(=S)N/C1=C/c1ccc(-c2ccc3c(c2)CN(CCO)C3=O)s1 [Cmpd 70, (E,Z)-2-(2-Hydroxyethyl)-5-(5-((5-oxo-2-thioxoimidazolidin-4-ylidene)methyl)thiophen-2-yl)isoindolin-1-one]
percent viable KHYG-1 cells (trypan blue) at 20 μM [1]: 77% | IC50 [3]: 0.78 µM | inhibition at 20 µM [2]: 38%

O=C1NC(=S)N/C1=C/c1ccc(-c2ccc3c(c2)CN(CCCO)C3=O)s1 [Cmpd 71, (E,Z)-2-(3-Hydroxypropyl)-5-(5-((5-oxo-2-thioxoimidazolidin-4-ylidene)methyl)thiophen-2-yl)isoindolin-1-one]
percent viable KHYG-1 cells (trypan blue) at 20 μM [1]: 88% | IC50 [3]: 0.53 µM | inhibition at 20 µM [2]: 62%

O=C1NC(=S)N/C1=C/c1ccc(-c2ccc3c(c2)C(=O)NC3)s1 [Cmpd 72, (E,Z)-6-(5-((5-Oxo-2-thioxoimidazolidin-4-ylidene)methyl)thiophen-2-yl)isoindolin-1-one]
percent viable KHYG-1 cells (trypan blue) at 20 μM [1]: 81% | IC50 [3]: 1.38 µM | inhibition at 20 µM [2]: 58%

CN1Cc2ccc(-c3ccc(/C=C4/NC(=S)NC4=O)s3)cc2C1=O [Cmpd 73, (E,Z)-2-Methyl-6-(5-((5-oxo-2-thioxoimidazolidin-4-ylidene)methyl)thiophen-2-yl)isoindolin-1-one]
percent viable KHYG-1 cells (trypan blue) at 20 μM [1]: 85% | IC50 [3]: 1.89 µM | inhibition at 20 µM [2]: 60%

O=C1NC(=S)N/C1=C/c1ccc(-c2ccc3c(c2)CN(CCCN2CCCCC2)C3=O)s1 [Cmpd 75, (E,Z)-5-(5-((5-Oxo-2-thioxoimidazolidin-4-ylidene)methyl)thiophen-2-yl)-2-(3-(piperidin-1-yl)propyl)isoindolin-1-one]
percent viable KHYG-1 cells (trypan blue) at 20 μM [1]: 85% | IC50 [3]: 11.8 µM | inhibition at 20 µM [2]: 61%

CN1CCN(CCCN2Cc3cc(-c4ccc(/C=C5/NC(=S)NC5=O)s4)ccc3C2=O)CC1 [Cmpd 76, (E,Z)-2-(3-(4-Methylpiperazin-1-yl)propyl)-5-(5-((5-oxo-2-thioxoimidazolidin-4-ylidene)methyl)thiophen-2-yl)isoindolin-1-one]
IC50 [3]: > 20 µM | inhibition at 20 µM [2]: 58% | melting point: 197 to 201 °C

O=C1NC(=S)N/C1=C/c1ccc(-c2ccc3c(c2)CN(CCCN2CCCC2)C3=O)s1 [Cmpd 77, (E,Z)-5-(5((5-Oxo-2-thioxoimidazolidin-4-ylidene)methyl)thiophen-2-yl)-2-(3-(pyrrolidin-1-yl)propyl)isoindolin-1-one]
percent viable KHYG-1 cells (trypan blue) at 20 μM [1]: 80% | IC50 [3]: > 20 µM | inhibition at 20 µM [2]: 81%

O=C1NC(=S)N/C1=C\c1ccc(-c2ccc3c(c2)C(=O)NCC3)s1 [Cmpd 81, (E,Z)-7-(5-((5-Oxo-2-thioxoimidazolidin-4-ylidene)methyl)thiophen-2-yl)-3,4-dihydroisoquinolin-1(2H)-one]
percent viable KHYG-1 cells (trypan blue) at 20 μM [1]: 88% | IC50 [3]: 0.67 µM | inhibition at 20 µM [2]: 62%

O=C1NC(=S)N/C1=C\c1ccc(-c2ccc3c(c2)CCNC3=O)s1 [Cmpd 82, (E,Z)-6-(5-((5-Oxo-2-thioxoimidazolidin-4-ylidene)methyl)thiophen-2-yl)-3,4-dihydroisoquinolin-1(2H)-one]
percent viable KHYG-1 cells (trypan blue) at 20 μM [1]: 80% | IC50 [3]: 1.14 µM | inhibition at 20 µM [2]: 92%
